Consider eleven molecules from patent USRE37781E1, “Substituted cyclic carbonyls and derivatives thereof useful as retroviral protease inhibitors” (DuPont Pharmaceuticals Company, priority 1991, dated 2002).

For series [1], the system named is HIV(3B) or HIV(RF) in MT-2 cells. The format is cell-based. Details: scale not given here. The following applies: Table E, whole cell infectivity assay. As for the experimental part: HIV Low Multiplicity Assay
Materials: MT-2, a human T-cell line, was cultured in RPMI medium supplemented with 5% (v/v) heat inactivated fetal calf serum (FCS), L-glutamine and gentamycin (GIBCO). Human immunodeficiency virus strains HIV (3B) and HIV (RF) were propagated in H-9 cells in RPMI with 5% FCS. XTT, benzene-sulfonic acid, 3,3′-[1-[(phenylamino) carbonyl]-3,4-tetrazolium]bis (4-methoxy-6nitro)-, sodium salt, was obtained from Starks Associates, Inc.
Method: Test compounds were dissolved in dimethylsulfoxide to 5 mg/ml and serially diluted into RPMI medium to ten times the desired final concentration. MT-2 cells (5×10^4/0.1 mL) were added to each well of a 96 well culture plate and 0.02 mL of the appropriate test compound solution was added to the cells such that each compound concentration was present in two wells. The cells and compounds were allowed to sit for 30 minutes at room temperature. HIV(3B) or HIV(RF) (−5×10^5 plaque foaming units/mL) was diluted in medium and added to the cell and compound mixtures to give a multiplicity of infection of 0.01 plaque forming unit/cell. The mixtures were incubated for 7 days at 36° C., during which time the virus replicated and caused the death of unprotected cells. The percentage of cells protected from virus induced cell death was determined by the degree of metabolism of the tetrazolium dye, XTT. In living cells, XTT was metabolized to a colored formazan product which was quantitated spectrophotometrically at 450 nm. The amount of colored formazan was proportional to the number of cells protected from virus by the test compound. The concentration of compound protecting either 50% (IC50) or 90% (IC90) with respect to an uninfected cell culture was determined.

The target of the next series is T1, HIV protease (Human immunodeficiency virus type 1 group M subtype B, UniProt P04585).
T1 construct: plasmid containing HIV protease under the control of an inducible T7 promoter; made in house; host or cells: E. coli (inclusion bodies, T7 promoter)
Briefly: biochemical. Details: species or system HIV-1. As for the experimental part: HIV Protease Inhibition Assay—Spectroscopic Method
Inclusion bodies were solubilized in 8M urea, 50 mM tris pH 8.0. Protease activity was recovered by dilution 20-fold into buffer containing 50 mM sodium acetate pH 5.5, 1 mM EDTA, 10% glycerol and 5% ethylene glycol. Enzyme was used at a final concentration of 1.0-10 ug/ml.
Stock solutions of 10 mM were prepared in DMSO.
All further dilutions were done in DMSO.

Series [2] is described as follows: Oral bioavailability studies in fasted beagle dogs. The format is in vivo. The following applies: for bioavailability: beagle, dog, plasma, po, excipient glycol, read-out: % Oral Bioavailability of 5U (Mean ± SE). As to the method:
Improved water solubility can result in increasing the extent of oral bioavailability. Oral bioavailability studies were performed in fasted beagle dogs. Compounds were dosed orally using a solution vehicle or the solid drug powder filled into hard gelatin capsules. Periodic blood samples were taken from each dog and plasma was separated. Plasma drug concentrations were determined using extraction and HPLC analysis. Generally, after the administration of 5U or its prodrugs 29A-E, the plasma concentrations of 5U were determined, rather than unchanged prodrug concentrations. […] Oral bioavailability is expressed as the percentage of the oral dose absorbed. […] Therefore, in order to attain improved oral bioavailability, 5U was administered using a solution with polyethylene glycol 400 or propylene glycol as the vehicle. […] Improved oral bioavailability was attained when the water soluble prodrugs were administered in the solid form, with no added excipients or solvents. […] The advantage of the water soluble prodrugs is especially clear at high doses. […] Samples were then extracted again and assayed for 5U concentration. […] Thus, plasma levels of both intact prodrug and hydrolysis product can be attained using these water soluble prodrugs.

Another series relates to HIV-1 (RF) in MT-2 cells. Briefly: microbe, parasite or virus in culture. It counts as cell-based. The following applies: Human immunodeficiency virus 1, MT2, HIV RNA assay, HIV-1 infected MT-2 cells; class symbols; read-out: IC90. The procedure, abridged:
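Read-out: gag and pol viral RNA captured by 5′-biotinylated oligonucleotides on streptavidin-coated wells, detected with alkaline phosphatase-linked reporter oligonucleotides, calibrated against BH10 in vitro transcripts. Virus stocks (RF, MN, IIIB) come from H9 cultures; MT-2 host cells kept in RPMI 1640, 5% FCS.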

The nature of a further series: Solubility studies. The format is physicochemical. As for the experimental part: For compounds of the present invention having reduceded water solubility it may be advantageous to prepare prodrugs to enhance the solubility and bioavailability of these compounds. […] Solubility studies were performed by mixing an excess of solid compound in water or aqueous medium for at least 4 hours. Solubility was assessed either visually, if a weighed amount clearly dissolved in a measured volume of solvent (method A), or by HPLC assay of filtrates of saturated solutions (method B).

For series [3], the target named is single-chain tethered dimer of HIV protease (Human immunodeficiency virus 1, UniProt P04585). Briefly: biochemical. The format is biochemical.
For the next series, the system named is HIV-1 protease. Briefly: HIV-1 Protease Transgenic Mouse Model (cataract phenotype). The conditions noted are these: for Delay in Cataract (relative to control): Tg 72 mouse; for Cataract Density (% of control): Tg 61 mouse.
A short description of series [4]: Hydrolysis of prodrugs to 5U in biological fluids in vitro. It counts as in vitro ADME. The conditions noted are these: exposed to plasma or intestinal enzymes in vitro, 37° C. As for the experimental part:
Compounds 29A-29E are hydrolyzed to parent compound 5U in biological fluids in vitro. This was shown as follows. Plasma was collected from rats, dogs, or human volunteer, and was used within 24 hours. […] After various times of incubation at 37° C., the hydrolysis reaction was quenched with the addition of an organic solvent. The organic solvent was used for extraction of 5U, and concentrations of 5U in the plasma aliquots were determined using HPLC after extraction. Concentrations of 5U were thus measured vs. time of incubation of the prodrug in plasma at 37° C. Similar studies were performed using a homogenate of rat intestinal tissue (10% w/v) as the hydrolysis medium. Results for in vitro hydrolysis of prodrug 29B in dog plasma and rat intestinal homogenate (10% w/v) are given in Table B. Results for in vitro hydrolysis of prodrug 29C in rat, dog and human plasma are given in Table C. […] Other salt forms of these compounds, such as prodrugs 29A and 29D, will be similar to their free acid or free base forms.

Converted amounts (≈) assume the structure as drawn. Where two headings read alike, the source gives them in different places.

Method for HIV-1 protease: The HIV protease inhibitory activity of the presently claimed compounds was measured in this animal system as a delay or prevention of the onset of cataract appearance in the test animals.
Plasmid Construction: The mammalian expression vector pMSG (Pharmacia) was modified by replacing the MMTV LTR promoter with the 412-bp Bgl II-BamHI mouse alpha A-cryatallin promoter fragment (Chepelinsky et al. Proc. Natl. Acad. Sci. USA, 1985, 82, 2334-2338). The SV40 early splice and polyadenylation signals were retained and this plasmid was renamed pCSV 19. A single chain, tethered dimeric form of the active HIV-1 protease gene (BAA; Cheng et al., Proc. Natl. Acad. Sci. USA, 1990, 87, 9660-9664 and Cheng et al., Gene, 1990, 87, 243-248) was modified for mammalian cell expression by replacing nucleotides 7 to 90 with [sequence]. The gene was cut with EcoRI and Hind III and after blunt-end repair cloned into the Sma I site of the pCSV 19, thus producing PCSV 19-BAA.
Construction of Transgenic Mice: 2.5 kb Hind III fragments from the pCSV 19-BAA and pCSV 19-BA*A* plasmids were isolated (modified from Sambrook at al., Molecular Cloning, A Laboratory Manual, 2nd Ed., 1989, Cold Spring Harbor Laboratory) and used for the construction of transgenic mice using the pronuclei injection method (Hogan et al., Manipulating the Mouse Embryo. A Laboratory Manual, 1986, Cold Spring Harbor Laboratory). Mice were screened for the HIV-1 protease transgene by either Southern blot or Polymerase Chain Reaction (PCR) methods. Mice of the FVB/N strain (Taketo et al., Proc. Natl. Acad Sci. USA, 1991, 88, 2065-2069) were used for the construction and breeding of these transgenic mice, and were originally obtained from Dr. Carl Hansen (NIH) and bred in our facility. Subsequently, the mice were purchased from Charles River Laboratory (Portage, Mich.).
Identification of Transgenic Mice: Southern blot analysis (Sambrook et al. vide supra) was performed on DNA purified from tail biopsies (Hogan et al. vide supra) using the 2.5 kb Hind III fragment from pCSV 19-BAA as the probe (^32P labeled). DNA for PCR was prepared from tail biopsies by overnight digestion with 0.5 mg of Proteinase K (Boehringer-Manheim GmbH) in 100 μl of water and 0.025% SDS. PCR primers specific for the mouse c-fos gene and the transgene's SV40 segment were used as an internal control in some samples. Each PCR reaction contained 1-2 μl of tail digest, 60 μg of each primer, 200 μM of Perkin Elmer Cetus dATP, dCTP, dGTP,TTP (buffered at pH 8.8) and up to 5 units of Perkin Elmer Cetus Ampli/Taq polymerase. The reactions were run on a Perkin Elmer DNA Thermal Cycler as follows: 1 min at 94° C., 3 min at 67° C. (2 sec extension/cycle) for 35 cycles. The PCR products were analyzed by gel electrophoresis (1% agarose,0.5 μg/ml of ethidium bromide), and tail samples with a 625 PCR fragment (SV40 specific) were considered positive for the transgene. Mice bearing the active HIV-1 protease transgene were also identified by their cataract phenotype.
Dosing Regimen: Compounds to be tested were pulverized by manual grinding with mortar and pestle. Just prior to dosing of mice, the compound was suspended in 0.25% methylcellulose/Tween 80 solution, homogenized in a manual Dounce homogenizer and sonicated for 10 min in a sonicating water bath. The volume of suspension was adjusted so that the amount of compound required for dosing one mouse was 0.1-0.2 mL. In order to maintain the required mg/kg dose, an average mouse weight for each group was determined twice a week and the amount of compound adjusted accordingly. Intraperitoneal (ip) and oral (po) dosing was performed using 25 G ⅝ in. injection and 20 G 1½ in. feeding needles, respectively. The dosing was performed twice a day (bid) and the doses were administered 6-8 h apart.

As usually defined, the IC90 is the point of the concentration-response curve where the effect stands at 90%. Broadly, the Ki is a dissociation constant, usually derived from enzyme kinetics or from competition with a known ligand. What is called melting point is the temperature, or range, at which the solid turns liquid. The molecule `CC(C)CCN1C(=O)N(CCC(C)C)C(Cc2ccccc2)C(O)C(O)C1Cc1ccccc1` (stereo not drawn) [Example 1AH] displayed a melting point of 194 to 195 °C. Also, the IC90 result in series [1] was “+ + +”. Also, the Ki on HIV protease (Table 1a, read-out: Ki) was less than 10 nM.

Usually bioavailability stands for dose-corrected exposure relative to a reference, in per cent. Usually Solubility stands for the dissolved amount per volume that the medium holds. `O=C1N(Cc2ccc(CO)cc2)C(Cc2ccccc2)C(O)C(O)C(Cc2ccccc2)N1Cc1ccc(CO)cc1` (stereo not drawn) [Example 5U]: the oral bioavailability result in [2] (administered as the solid powder) is listed as “low oral bioavailability”; in series [2] (similar (high) dose in a non-aqueous vehicle) it was “relatively poor oral bioavailability”. The bioavailability is 5 ± 2% in series [2] (dose 40 mg/kg 5U eq.) and 50 ± 20% in [2] (dose 10-15 mg/kg 5U eq.). For the same molecule, in the series on HIV-1 (RF) in MT-2 cells, the IC90 was less than 10 µg/mL. For the same molecule, the Solubility in the series “Solubility studies” (thermodynamic from solid, water, method B (HPLC assay of filtrates of saturated solutions), read-out: Solubility) is 10 µg/mL (≈ 17.6 µM). The molecule also returned a Ki in series [3] of less than 10 nM. Besides, the “Delay in Cataract (relative to control)” value in the series on HIV-1 protease (100 mg/kg bid ip) is 5 days; in the series on HIV-1 protease (400 mg/kg bid ip days 15-42), 45 days.

`C=CCN1C(=O)N(CC=C)C(Cc2ccccc2)C(O)C(O)C1Cc1ccccc1` (stereo not drawn) [Example 1C]: the IC90 result in [1] is reported as “+ + +”. On HIV protease (Ki, Table 1a), this molecule showed a Ki of less than 10 nM.

In the case of `CN(C)CC(=O)OCc1ccc(CN2C(=O)N(Cc3ccc(COC(=O)CN(C)C)cc3)[C@H](Cc3ccccc3)[C@H](O)[C@@H](O)[C@H]2Cc2ccccc2)cc1.Cl` [Example 29E], in [4], the “conversion of prodrug to parent 5U” value is “readily convert to parent 5U”. The “AUC of intact esters (total of mono and bis ester) relative to that of 5U” value in series [2] (oral, plasma treated with NaOH) is reported as “approximately 2 fold”.

In the series “Solubility studies” (water, method A (visually)), `CN(C)CC(=O)OCc1ccc(CN2C(=O)N(Cc3ccc(CO)cc3)[C@H](Cc3ccccc3)[C@H](O)[C@@H](O)[C@H]2Cc2ccccc2)cc1.Cl` [Example 29D] registered a Solubility greater than 200000 µg/mL.

Regarding `O=C1N(Cc2ccccc2)C(Cc2ccccc2)C(O)C(O)C(Cc2ccccc2)N1Cc1ccccc1` (stereo not drawn) [Example 1AQ], the concentration for an effect of 90% (IC90) result in [1] is “+ + +”. At HIV protease (Ki), this molecule had a Ki of less than 10 nM. The “Cataract Density (% of control)” value in the series with HIV-1 protease (60 mg/kg ip preg days 11-18) is 46.6 % of control; in the series on HIV-1 protease (85 mg/kg ip preg days 11-18, 17-18), 20.6 % of control.

Consider `CN(C)CC(=O)OCc1ccc(CN2C(=O)N(Cc3ccc(COC(=O)CN(C)C)cc3)[C@H](Cc3ccccc3)[C@H](O)[C@@H](O)[C@H]2Cc2ccccc2)cc1` [Example 29C], for which the “conversion of prodrug to parent 5U” value in series [4] is reported as “readily convert to parent 5U”. Moreover, the Solubility in “Solubility studies” (0.1M citric acid, method A (visually)) is greater than 20000 µg/mL.

The molecule `O=C1N(Cc2ccc(COP(=O)(O)O)cc2)[C@H](Cc2ccccc2)[C@H](O)[C@@H](O)[C@@H](Cc2ccccc2)N1Cc1ccc(COP(=O)(O)O)cc1` [Example 29A] had a Solubility in “Solubility studies” of 2250 µg/mL (≈ 3100 µM).

`CC(C)=CCN1C(=O)N(CC=C(C)C)C(Cc2ccccc2)C(O)C(O)C1Cc1ccccc1` (stereo not drawn) [Example 1AC] yielded a melting point of 160 to 163 °C. Moreover, the concentration for an effect of 90% (IC90) result in series [1] was “+ + +”. Further, the Ki at HIV protease (Table 1a, read-out: Ki) was less than 10 nM.

Consider `O=C1N(CC2CC2)[C@H](Cc2ccccc2)[C@H](O)[C@@H](O)[C@@H](Cc2ccccc2)N1CC1CC1` [Example 1X], for which the IC90 result in series [1] is “+ + +”. At HIV protease (Table 1a, read-out: Ki), the Ki was less than 10 nM. The “Cataract Density (% of control)” value with HIV-1 protease (5 mg/kg ip preg days 11-18) is 39.8 % of control; in the series on HIV-1 protease (15 mg/kg ip preg days 11-18), 28.8 % of control.

Consider `CCCCN1C(=O)N(CCCC)C(Cc2ccccc2)C(O)C(O)C1Cc1ccccc1` (stereo not drawn) [Example 1Z], for which, in series [1], the IC90 result is “+ + +”. The inhibition constant (Ki) at HIV protease (Table 1a, read-out: Ki) was less than 10 nM.
